From patent publication US12534439B2, “Xanthohumol derivatives and methods for making and using” (Oregon State University, priority 2021, dated 2026)

Test system: UCP1
Test: Western blotting of UCP1 in skeletal muscle, BAT and WAT
Format: in vivo
Conditions: HFD-fed mice, versus control
Description: Western Blotting. Approximately 100 mg of frozen BAT and WAT was homogenized in RIPA buffer with protease and phosphatase inhibitors (Santa Cruz Biotechnology, Dallas, TX, USA). Tissues were sonicated for 30 seconds, and the homogenates were centrifuged at 15700 g for 10 minutes to collect the supernatants. Protein (30 μg) was separated by SDS-PAGE using 4-15% MP TGX Gels (Bio-Rad, Hercules, CA, USA) and blotted onto nitrocellulose membranes. The membranes were blocked with 5% nonfat milk for 90 minutes and incubated with antibodies against GAPDH (#0411, Santa Cruz Biotechnology, Dallas, TX, USA) or UCP1 (#10983, Genetex, Irvine, CA, USA) for 60 minutes. After a second reaction with secondary antibodies (horseradish peroxidase-conjugated IgG antibodies), the protein bands on the nitrocellulose membranes were visualized by enhanced chemiluminescence substrate on an electrochemical luminescence (ECL) imager (Thermo Fisher Scientific, Waltham, MA, USA). Band intensities were quantified by densitometry using Image J software.

SMILES	UCP1 protein expression in WAT	UCP1 protein expression in skeletal muscle and BAT	UCP1 protein expression in skeletal muscle, BAT, or WAT
COc1cc(O)c(CC=C(C)C)c(O)c1C(=O)/C=C/c1ccc(O)cc1 [XN, xanthohumol]	decreased	no significant changes	–
COc1cc(O)c(CC=C(C)C)c(O)c1-c1cc(-c2ccc(O)cc2)n(C)n1 [XP, 4-(5-(4-hydroxyphenyl)-1-methyl-1H-pyrazol-3-yl)-5-methoxy-2-(3-methylbut-2-en-1-yl)benzene-1,3-diol]	–	–	no effect
